{"source": "patent US11452731B2", "about": "“Method of treating and preventing loss of cognition” (ENDORECHERCHE, INC., priority 2009, dated 2022)", "assay": "Clinical trial ERC-205: DHEA 50 mg daily versus placebo on hot flushes in postmenopausal women (Example 10)", "format": "in vivo", "settings": "50 mg", "procedure": "Postmenopausal women experiencing moderate or severe hot flushes per week (as determined by a two week diary) were randomized to receive a daily dose of either placebo or 50 mg DHEA. Fifty evaluable participants (25 patients per arm) were treated for four months with a daily assessment of hot flushes recorded in a diary completed by each participant.\nPostmenopausal women aged 40 to 70 years with moderate or severe hot flushes per week, as confirmed by a two-week screening hot flush diary were enrolled after signing informed consent. The protocol was approved by the Institutional Review Board (IRB) of Le Centre Hospitalier de l'Université Laval and by Health Canada.\nThe primary endpoint was the change from Baseline in the weekly frequency of moderate to severe hot flushes at Week 16, after four months of treatment. The objectives also included the change from Baseline in the weekly frequency of all hot flushes and the change from Baseline in the weekly weighted severity score.\nThe response endpoint is the patient's paper diary which was filled in daily to specify the number and type of hot flushes as follows:\nThe hot flush diary began as a Screening diary for two weeks prior to randomization whereby patients had to complete the diary daily, recording the number and severity of hot flushes. The patients had to record an average of 50 or more moderate or severe hot flushes per week over the two-week period to be eligible (i.e., at least 100 hot flushes documented on the two week Screening diary).\nOnce randomized, the patient completed eight, two-week hot flush diaries upon beginning study medication. The diaries had to be filled out on a daily basis. The first diary was completed over the first two weeks and be returned on the two week visit. The second two-week diary was completed over the next two weeks of the first four week treatment period and was returned at the four week visit. At 4, 8, 12 and 16 week visits, two two-week diaries for hot flushes were collected.", "key": {"[1]": {"settings": "strata 50 to 70 hot flushes per week at screening, Week 16"}, "[2]": {"settings": "strata ≥71 hot flushes per week at screening, Screening (mean of 2 w), baseline"}, "[3]": {"settings": "strata ≥71 hot flushes per week at screening, Week 1"}, "[4]": {"settings": "strata ≥71 hot flushes per week at screening, Week 2"}, "[5]": {"settings": "strata ≥71 hot flushes per week at screening, Week 3"}, "[6]": {"settings": "strata ≥71 hot flushes per week at screening, Week 4"}, "[7]": {"settings": "strata ≥71 hot flushes per week at screening, Week 5"}, "[8]": {"settings": "strata ≥71 hot flushes per week at screening, Week 6"}, "[9]": {"settings": "strata ≥71 hot flushes per week at screening, Week 7"}, "[10]": {"settings": "strata ≥71 hot flushes per week at screening, Week 8"}, "[11]": {"settings": "strata ≥71 hot flushes per week at screening, Week 9"}, "[12]": {"settings": "strata ≥71 hot flushes per week at screening, Week 10"}, "[13]": {"settings": "strata ≥71 hot flushes per week at screening, Week 11"}, "[14]": {"settings": "strata ≥71 hot flushes per week at screening, Week 12"}, "[15]": {"settings": "strata ≥71 hot flushes per week at screening, Week 13"}}}
{"smiles": "C[C@]12CC[C@H](O)CC1=CC[C@@H]1[C@@H]2CC[C@]2(C)C(=O)CC[C@@H]12", "note": "[DHEA, dehydroepiandrosterone]", "values": [{"measurement": "WEIGHTED SEVERITY SCORE OF HOT FLUSHES PER WEEK (MEAN)", "setting": "strata 50 to 70 hot flushes per week at screening, Week 15", "result": 83.7}, {"measurement": "NUMBER OF ALL HOT FLUSHES PER WEEK (MEAN)", "setting": "[1]", "result": 35.7}, {"measurement": "NUMBER OF MODERATE TO SEVERE HOT FLUSHES PER WEEK (MEAN)", "setting": "[1]", "result": 32.7}, {"measurement": "WEIGHTED SEVERITY SCORE OF HOT FLUSHES PER WEEK (MEAN)", "setting": "[1]", "result": 81.6}, {"measurement": "NUMBER OF ALL HOT FLUSHES PER WEEK (MEAN)", "setting": "[2]", "result": 91.0}, {"measurement": "NUMBER OF MODERATE TO SEVERE HOT FLUSHES PER WEEK (MEAN)", "setting": "[2]", "result": 88.5}, {"measurement": "WEIGHTED SEVERITY SCORE OF HOT FLUSHES PER WEEK (MEAN)", "setting": "[2]", "result": 241.6}, {"measurement": "NUMBER OF ALL HOT FLUSHES PER WEEK (MEAN)", "setting": "[3]", "result": 68.6}, {"measurement": "NUMBER OF MODERATE TO SEVERE HOT FLUSHES PER WEEK (MEAN)", "setting": "[3]", "result": 64.1}, {"measurement": "WEIGHTED SEVERITY SCORE OF HOT FLUSHES PER WEEK (MEAN)", "setting": "[3]", "result": 175.2}, {"measurement": "NUMBER OF ALL HOT FLUSHES PER WEEK (MEAN)", "setting": "[4]", "result": 57.9}, {"measurement": "NUMBER OF MODERATE TO SEVERE HOT FLUSHES PER WEEK (MEAN)", "setting": "[4]", "result": 53.5}, {"measurement": "WEIGHTED SEVERITY SCORE OF HOT FLUSHES PER WEEK (MEAN)", "setting": "[4]", "result": 150.8}, {"measurement": "NUMBER OF ALL HOT FLUSHES PER WEEK (MEAN)", "setting": "[5]", "result": 57.5}, {"measurement": "NUMBER OF MODERATE TO SEVERE HOT FLUSHES PER WEEK (MEAN)", "setting": "[5]", "result": 52.5}, {"measurement": "WEIGHTED SEVERITY SCORE OF HOT FLUSHES PER WEEK (MEAN)", "setting": "[5]", "result": 149.8}, {"measurement": "NUMBER OF ALL HOT FLUSHES PER WEEK (MEAN)", "setting": "[6]", "result": 62.7}, {"measurement": "NUMBER OF MODERATE TO SEVERE HOT FLUSHES PER WEEK (MEAN)", "setting": "[6]", "result": 57.8}, {"measurement": "WEIGHTED SEVERITY SCORE OF HOT FLUSHES PER WEEK (MEAN)", "setting": "[6]", "result": 166.5}, {"measurement": "NUMBER OF ALL HOT FLUSHES PER WEEK (MEAN)", "setting": "[7]", "result": 60.0}, {"measurement": "NUMBER OF MODERATE TO SEVERE HOT FLUSHES PER WEEK (MEAN)", "setting": "[7]", "result": 53.2}, {"measurement": "WEIGHTED SEVERITY SCORE OF HOT FLUSHES PER WEEK (MEAN)", "setting": "[7]", "result": 154.1}, {"measurement": "NUMBER OF ALL HOT FLUSHES PER WEEK (MEAN)", "setting": "[8]", "result": 53.9}, {"measurement": "NUMBER OF MODERATE TO SEVERE HOT FLUSHES PER WEEK (MEAN)", "setting": "[8]", "result": 47.6}, {"measurement": "WEIGHTED SEVERITY SCORE OF HOT FLUSHES PER WEEK (MEAN)", "setting": "[8]", "result": 138.7}, {"measurement": "NUMBER OF ALL HOT FLUSHES PER WEEK (MEAN)", "setting": "[9]", "result": 52.2}, {"measurement": "NUMBER OF MODERATE TO SEVERE HOT FLUSHES PER WEEK (MEAN)", "setting": "[9]", "result": 46.7}, {"measurement": "WEIGHTED SEVERITY SCORE OF HOT FLUSHES PER WEEK (MEAN)", "setting": "[9]", "result": 137.2}, {"measurement": "NUMBER OF ALL HOT FLUSHES PER WEEK (MEAN)", "setting": "[10]", "result": 48.9}, {"measurement": "NUMBER OF MODERATE TO SEVERE HOT FLUSHES PER WEEK (MEAN)", "setting": "[10]", "result": 43.3}, {"measurement": "WEIGHTED SEVERITY SCORE OF HOT FLUSHES PER WEEK (MEAN)", "setting": "[10]", "result": 129.0}, {"measurement": "NUMBER OF ALL HOT FLUSHES PER WEEK (MEAN)", "setting": "[11]", "result": 47.0}, {"measurement": "NUMBER OF MODERATE TO SEVERE HOT FLUSHES PER WEEK (MEAN)", "setting": "[11]", "result": 41.1}, {"measurement": "WEIGHTED SEVERITY SCORE OF HOT FLUSHES PER WEEK (MEAN)", "setting": "[11]", "result": 121.8}, {"measurement": "NUMBER OF ALL HOT FLUSHES PER WEEK (MEAN)", "setting": "[12]", "result": 46.9}, {"measurement": "NUMBER OF MODERATE TO SEVERE HOT FLUSHES PER WEEK (MEAN)", "setting": "[12]", "result": 41.6}, {"measurement": "WEIGHTED SEVERITY SCORE OF HOT FLUSHES PER WEEK (MEAN)", "setting": "[12]", "result": 121.6}, {"measurement": "NUMBER OF ALL HOT FLUSHES PER WEEK (MEAN)", "setting": "[13]", "result": 42.8}, {"measurement": "NUMBER OF MODERATE TO SEVERE HOT FLUSHES PER WEEK (MEAN)", "setting": "[13]", "result": 36.4}, {"measurement": "WEIGHTED SEVERITY SCORE OF HOT FLUSHES PER WEEK (MEAN)", "setting": "[13]", "result": 110.2}, {"measurement": "NUMBER OF ALL HOT FLUSHES PER WEEK (MEAN)", "setting": "[14]", "result": 39.3}, {"measurement": "NUMBER OF MODERATE TO SEVERE HOT FLUSHES PER WEEK (MEAN)", "setting": "[14]", "result": 33.1}, {"measurement": "WEIGHTED SEVERITY SCORE OF HOT FLUSHES PER WEEK (MEAN)", "setting": "[14]", "result": 98.7}, {"measurement": "NUMBER OF ALL HOT FLUSHES PER WEEK (MEAN)", "setting": "[15]", "result": 39.3}, {"measurement": "NUMBER OF MODERATE TO SEVERE HOT FLUSHES PER WEEK (MEAN)", "setting": "[15]", "result": 33.9}, {"measurement": "WEIGHTED SEVERITY SCORE OF HOT FLUSHES PER WEEK (MEAN)", "setting": "[15]", "result": 102.8}, {"measurement": "NUMBER OF ALL HOT FLUSHES PER WEEK (MEAN)", "setting": "strata ≥71 hot flushes per week at screening, Week 14", "result": 37.3}]}
